# According to US5861414A, “Piperidineacetic acid derivatives useful as fibrinogen antagonist agent” (priority 1994, dated 1999):
# Where a name gives a salt, the structure may show the parent alone. Read-outs that look alike come from different tables or passages of the source.
# Tested on: human washed and resuspended platelets (HRP)
# Test: Inhibition of U-46619-induced platelet aggregation in washed human platelets (turbidometric, Born-type aggregometer)
# Type: cell-based
# Conditions: read-out: IC50, concentration of the compound required to inhibit platelet aggregation by 50%
# Protocol: Inhibition of platelet aggregation by compounds of the invention was determined according to the following procedure. […] The blood was treated with aspirin (0.1 mM) and prostacyclin (0.06 μM) prior to centrifugation (1400 g, 4 minutes, 20° C.). The supernatant platelet-rich plasma (PRP) was isolated and further centrifuged (1400 g, 10 minutes, 20° C.) to sediment the platelets. […] This platelet suspension was centrifuged (1400 g, 8 minutes, 20° C.) and the resultant platelet pellet was resuspended into the physiological salt solution adjusted to pH 7.4. The resultant washed-platelet preparation was diluted to give a final platelet count of […]. […] Platelet aggregation was quantified using a turbidometric method.
# [1] = Homo sapiens, Platelet, washed human platelets, 37° C, 5 minutes pre-incubation, agonist 1 μM U-46619, fibrinogen 0.5 mg/ml
Structure (SMILES),IC50 [1] [nM],also measured
"O=C(O)CN1CCC(c2nn(Cc3ccc(Cl)cc3)c3cc(/C=C/C4CCNCC4)ccc23)CC1 [4 (ii), (4-{1-(4-Chloro-benzyl)-6-[2-piperidin-4-yl-(E)-vinyl]-1H-indazol-3-yl}-piperidin-1-yl)-acetic acid trifluoroacetate]",72,
"O=C(O)CN1CCC(c2nn(Cc3ccc(Cl)cc3)c3cc(CCC4CCNCC4)ccc23)CC1 [5 (iii), {4-[1-(4-Chloro-benzyl)-6-(2piperidin-4-yl-ethyl)-1H-indazol-3-yl-piperidin-1-yl}-acetic acid trifluoroacetate]",80,
"O=C(O)CN1CCC(c2nn(Cc3ccc(F)cc3)c3cc(/C=C/C4CCNCC4)ccc23)CC1 [6 (ii), {4-[1-(4-Fluoro-benzyl)-6-(2-piperidin-4-yl-(E)-vinyl)-1H-indazol-3-yl]-piperidin-1-yl}-acetic acid hydrochloride]",,"IC50 (washed human platelets, 37° C, 5 minutes pre-incubation, agonist 1 μM U-46619, fibrinogen 0.5 mg/ml, hydrochloride): 110 nM"
"O=C(O)CN1CCC(c2nn(Cc3ccc(Cl)c(Cl)c3)c3cc(/C=C/C4CCNCC4)ccc23)CC1 [3 (ii), {4-[1-(3,4-Dichloro-benzyl)-6-(2-piperidin-4-yl-(E)-vinyl)-1H-indazol-3-yl]-piperidin-1-yl}-acetic acid trifluoroacetate]",74,
"O=C(O)CN1CCC(c2nn(Cc3ccccc3)c3cc(/C=C/C4CCNCC4)ccc23)CC1 [7 (ii), {4-[1-Benzyl-6-(2-piperidin-4-yl-(E)-vinyl)-1H-indazol-3-yl]-piperidin-1-yl}-acetic acid trifluoroacetate]",107,
"O=C(O)CN1CCC(c2n[nH]c3cc(/C=C/C4CCNCC4)ccc23)CC1 [2 (ii), {4-[6-(2-Piperidin-4-yl-(E)-vinyl)-1H-indazol-3-yl]-piperidin-1-yl}-aceticacid trifluoroacetate]",92,
"O=C(O)CN1CCC(c2nn(Cc3ccc(F)cc3)c3cc(/C=C/C4CCNCC4)ccc23)CC1 [1 (xiii), {4-[1-(4-Fluoro-benzyl)-6-(2-piperidin-4-yl-(E)-vinyl)-1H-indazol-3-yl]-piperidin-1-yl}-acetic acid trifluoroacetate]",126,
"O=C(O)CN1CCC(c2n[nH]c3cc(/C=C/C4CCNCC4)ccc23)CC1 [2 (iv), {4-[6-(2-Piperidin-4-yl-(E)-vinyl)-1H-indazol-3-yl]-piperidin-1-yl}-aceticacid, hydrochloride hydrate]",,"IC50 (Homo sapiens, Platelet): 67 nM"
